According to patent US7294633B2, “Oxazolo-and furopyrimidines and their use in medicaments against tumors” (Novartis AG, priority 2001, dated 2007):

melting point: 64 to 84 °C
Compound: C[C@@H](Nc1ncnc2oc(-c3cccc(N)c3)cc12)c1ccccc1 [Example 13, 4-(1R-phenylethylamino)-6-(3-aminophenyl)furo[2,3-d]pyrimidine]
